The target in data set [1] is T1, Serine protease HTRA2, mitochondrial (Homo sapiens, UniProt O43464).
T1 sequence (O43464 whole entry): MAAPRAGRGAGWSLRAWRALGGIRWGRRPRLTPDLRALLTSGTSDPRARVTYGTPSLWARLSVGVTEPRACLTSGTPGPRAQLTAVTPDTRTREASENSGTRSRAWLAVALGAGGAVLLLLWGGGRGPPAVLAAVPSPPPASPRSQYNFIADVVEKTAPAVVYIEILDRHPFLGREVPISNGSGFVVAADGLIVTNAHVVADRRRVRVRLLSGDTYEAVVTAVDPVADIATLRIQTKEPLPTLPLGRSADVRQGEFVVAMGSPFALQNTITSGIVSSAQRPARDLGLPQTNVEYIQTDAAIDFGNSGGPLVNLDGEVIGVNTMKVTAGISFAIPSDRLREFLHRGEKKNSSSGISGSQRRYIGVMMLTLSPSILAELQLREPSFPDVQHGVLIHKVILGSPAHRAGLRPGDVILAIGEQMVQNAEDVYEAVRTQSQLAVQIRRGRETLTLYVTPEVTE
Kind of data set: Inhibition of recombinant human HTRA2 using H2-OPT as substrate assessed as increase in fluorescence and measured for 2 hrs by fluorescent plate reader analysis.

Data set [2] deals with T2, Serine protease HTRA2, mitochondrial (Homo sapiens) (UniProt O43464).
T2 sequence (whole entry): T1 sequence (O43464 whole entry)
Kind of data set: Binding affinity to recombinant human HTRA2 assessed as increase in fluorescence using H2-OPT as substrate at 1 uM by SDS-PAGE based gel fluorescence scanning analysis.

For data set [3], the target named is T3, Periplasmic serine endoprotease DegP (Escherichia coli (strain K12)) (UniProt P0C0V0).
T3 sequence (whole entry): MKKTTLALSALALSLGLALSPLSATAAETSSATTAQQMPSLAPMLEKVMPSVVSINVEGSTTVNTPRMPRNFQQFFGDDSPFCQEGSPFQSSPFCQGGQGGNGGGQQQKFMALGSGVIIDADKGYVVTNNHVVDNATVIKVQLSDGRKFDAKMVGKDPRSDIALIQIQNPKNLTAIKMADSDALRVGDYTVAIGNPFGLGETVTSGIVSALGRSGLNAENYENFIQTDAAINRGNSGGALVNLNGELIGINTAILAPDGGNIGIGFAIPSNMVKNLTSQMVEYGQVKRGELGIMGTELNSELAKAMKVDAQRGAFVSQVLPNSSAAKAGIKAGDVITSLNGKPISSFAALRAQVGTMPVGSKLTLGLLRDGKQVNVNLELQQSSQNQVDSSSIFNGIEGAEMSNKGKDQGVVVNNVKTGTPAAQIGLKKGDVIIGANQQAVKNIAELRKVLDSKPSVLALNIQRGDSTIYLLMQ
The data set can be described thus: Binding affinity to recombinant Escherichia coli DegP assessed as increase in fluorescence using H2-OPT as substrate at 1 uM by SDS-PAGE based gel fluorescence scanning analysis.

For data set [4], the target named is Albumin (Bos taurus, UniProt P02769). The data set can be described thus: Binding affinity to bovine serum albumin in human U-87 MG cell culture media assessed as appearance of fluorescent bands at 5 uM by SDS-PAGE based In-gel fluorescence analysis. The following applies: cattle.
Chain of Albumin (Bos taurus, UniProt P02769) (P02769 whole entry): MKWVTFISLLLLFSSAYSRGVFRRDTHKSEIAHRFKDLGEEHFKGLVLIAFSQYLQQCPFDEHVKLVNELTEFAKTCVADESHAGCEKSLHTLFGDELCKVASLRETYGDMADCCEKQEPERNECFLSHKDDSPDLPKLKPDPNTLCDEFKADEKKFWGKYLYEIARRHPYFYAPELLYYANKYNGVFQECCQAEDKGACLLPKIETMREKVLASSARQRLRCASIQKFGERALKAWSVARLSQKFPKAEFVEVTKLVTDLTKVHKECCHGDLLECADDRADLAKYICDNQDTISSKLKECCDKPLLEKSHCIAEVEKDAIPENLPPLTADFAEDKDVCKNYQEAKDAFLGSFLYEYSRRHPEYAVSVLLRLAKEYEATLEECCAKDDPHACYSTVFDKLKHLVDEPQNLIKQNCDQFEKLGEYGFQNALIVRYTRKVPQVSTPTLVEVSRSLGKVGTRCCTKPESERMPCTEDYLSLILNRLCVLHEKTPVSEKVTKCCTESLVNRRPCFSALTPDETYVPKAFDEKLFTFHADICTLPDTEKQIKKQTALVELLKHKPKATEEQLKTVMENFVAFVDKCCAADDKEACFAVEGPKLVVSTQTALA
In data set [5] the target is T4, Neutrophil elastase (Homo sapiens) (UniProt P08246).
T4 sequence (whole entry): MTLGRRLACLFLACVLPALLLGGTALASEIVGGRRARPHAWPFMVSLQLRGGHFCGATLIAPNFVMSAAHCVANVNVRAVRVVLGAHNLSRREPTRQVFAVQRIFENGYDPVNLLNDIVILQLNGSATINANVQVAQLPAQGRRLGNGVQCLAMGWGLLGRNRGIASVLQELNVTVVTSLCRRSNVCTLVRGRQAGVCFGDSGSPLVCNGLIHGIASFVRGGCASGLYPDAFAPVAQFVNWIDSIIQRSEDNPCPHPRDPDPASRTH
Kind of data set: Binding affinity to recombinant human neutrophil elastase assessed as increase in fluorescence using H2-OPT as substrate at 1 uM by SDS-PAGE based gel fluorescence scanning analysis. It counts as single protein.

Data set [6] has as its target Trypsin (Homo sapiens) (UniProt P07477+P07478+P35030). Kind of data set: Binding affinity to recombinant human trypsin assessed as increase in fluorescence using H2-OPT as substrate at 1 uM by SDS-PAGE based gel fluorescence scanning analysis. The data set is classed as protein assay.
Data set [7] deals with Chymotrypsin (Homo sapiens) (UniProt Q99895+P17538+P40313+Q6GPI1). The data set can be described thus: Binding affinity to recombinant human chymotrypsin assessed as increase in fluorescence using H2-OPT as substrate at 1 uM by SDS-PAGE based gel fluorescence scanning analysis. It counts as protein assay.
The target of data set [8] is T3, Periplasmic serine endoprotease DegP (Escherichia coli (strain K12)). Kind of data set: Binding affinity to Escherichia coli DegP assessed as appearance of fluorescent bands at 10 uM incubated for 2 hrs by SDS-PAGE based gel fluorescence scanning analysis.
Data set [9] shares this target. The data set can be described thus: Binding affinity to Escherichia coli DegP assessed as appearance of fluorescent bands at 1 to 50 uM incubated for 1 hrs by SDS-PAGE based gel fluorescence scanning analysis. Conditions: dose 1-50 µM.
The target in data set [10] is T5, Serine protease HTRA1 (Homo sapiens, UniProt Q92743). The data set can be described thus: Inhibition of recombinant human HTRA1 using H2-OPT as substrate assessed as increase in fluorescence and measured for 2 hrs by fluorescent plate reader analysis.
T5 sequence (Q92743 whole entry): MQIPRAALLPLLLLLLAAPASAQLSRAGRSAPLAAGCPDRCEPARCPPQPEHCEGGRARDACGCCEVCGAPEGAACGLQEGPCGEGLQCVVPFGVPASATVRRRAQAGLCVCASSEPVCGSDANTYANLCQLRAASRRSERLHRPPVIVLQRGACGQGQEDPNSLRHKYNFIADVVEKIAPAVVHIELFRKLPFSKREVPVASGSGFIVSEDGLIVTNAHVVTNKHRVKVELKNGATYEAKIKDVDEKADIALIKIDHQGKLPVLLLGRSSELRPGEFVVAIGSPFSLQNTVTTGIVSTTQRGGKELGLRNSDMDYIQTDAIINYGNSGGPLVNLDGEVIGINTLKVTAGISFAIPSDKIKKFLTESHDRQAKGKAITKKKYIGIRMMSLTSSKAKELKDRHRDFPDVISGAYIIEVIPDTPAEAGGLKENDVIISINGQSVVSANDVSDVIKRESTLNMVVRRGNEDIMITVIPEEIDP
For data set [11], the target named is T5, Serine protease HTRA1. The data set can be described thus: Inhibition of recombinant human HTRA1 using H2-OPT as substrate assessed as increase in fluorescence at 1 uM and measured for 2 hrs by fluorescent plate reader analysis.
Data set [12] deals with T2, Serine protease HTRA2, mitochondrial (Homo sapiens). The data set can be described thus: Inhibition of recombinant human HTRA2 using H2-OPT as substrate assessed as increase in fluorescence at 1 uM and measured for 2 hrs by fluorescent plate reader analysis.
In data set [13] the target is Albumin (Homo sapiens, UniProt P02768). The data set can be described thus: Binding affinity to human serum albumin assessed as appearance of fluorescent bands at 2 uM by SDS-PAGE based In-gel fluorescence analysis.
Chain of Albumin (Homo sapiens, UniProt P02768) (P02768 whole entry): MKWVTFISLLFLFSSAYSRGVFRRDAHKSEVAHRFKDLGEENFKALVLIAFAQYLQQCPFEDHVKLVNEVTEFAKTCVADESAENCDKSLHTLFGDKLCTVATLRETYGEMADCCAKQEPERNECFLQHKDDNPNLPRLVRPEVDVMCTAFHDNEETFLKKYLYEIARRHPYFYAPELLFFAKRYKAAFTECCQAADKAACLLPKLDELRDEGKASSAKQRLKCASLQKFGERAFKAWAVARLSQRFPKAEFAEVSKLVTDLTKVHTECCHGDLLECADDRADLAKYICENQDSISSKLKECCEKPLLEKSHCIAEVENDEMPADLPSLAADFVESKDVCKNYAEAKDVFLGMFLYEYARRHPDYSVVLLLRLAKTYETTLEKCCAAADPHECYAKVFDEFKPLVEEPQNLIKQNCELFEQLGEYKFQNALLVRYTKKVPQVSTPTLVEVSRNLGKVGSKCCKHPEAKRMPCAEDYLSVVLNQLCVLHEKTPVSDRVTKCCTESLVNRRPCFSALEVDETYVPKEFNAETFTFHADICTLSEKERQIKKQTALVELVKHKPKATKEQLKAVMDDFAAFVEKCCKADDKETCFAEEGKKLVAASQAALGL
Data set [14] concerns the target T5, Serine protease HTRA1. Kind of data set: Binding affinity to recombinant human HTRA1 in human serum assessed as appearance of fluorescent bands at 2 uM by In-gel fluorescence analysis. The data set is classed as cell-free.
Data set [15] has as its target T5, Serine protease HTRA1. The data set can be described thus: Binding affinity to human HTRA1 in Amyloid-beta treated human U-87 MG cells assessed as appearance of fluorescent bands at 5 uM by SDS-PAGE based In-gel fluorescence analysis. The data set is classed as cell-based.
Data set [16] deals with T5, Serine protease HTRA1. The data set can be described thus: Binding affinity to human HTRA1 in human U-87 MG cells assessed as appearance of fluorescent bands at 5 uM by SDS-PAGE based In-gel fluorescence analysis. It counts as cell-based.

Molecules are shown by their SMILES. The source made the active and inactive calls. No cut-off for these calls is given here.

In the case of `CC(C)C[C@H](NC(=O)CCCCCNC(=O)c1ccc(C(=O)O)c(-c2c3ccc(=O)cc-3oc3cc(O)ccc23)c1)C(=O)N[C@@H](Cc1ccccc1)C(=O)N[C@@H](CC(C)(C)C)C(=O)N[C@@H](C(C)C)P(=O)(Oc1ccccc1)Oc1ccccc1`, the IC50 – broadly, the midpoint of a concentration-inhibition curve – in data set [1] turned out to be 8.1 µM. Further, the result in data set [2] was Active. In addition, the outcome in [3] was inactive.

Consider `CC(C)C[C@H](NC(=O)CCCCCNC(=O)c1ccc(C(=O)O)c(-c2c3ccc(=O)cc-3oc3cc(O)ccc23)c1)C(=O)N[C@@H](Cc1ccccc1)C(=O)N[C@@H](CC1CC1)C(=O)N[C@@H](C(C)C)P(=O)(Oc1ccccc1)Oc1ccccc1`, for which the IC50 in data set [1] is 5.2 µM. In [2], the result was Active. The outcome in data set [3] was inactive. In data set [4], the result was Active.

`CC(C)C[C@H](NC(=O)CCCCCNC(=O)c1ccc(C(=O)O)c(-c2c3ccc(=O)cc-3oc3cc(O)ccc23)c1)C(=O)N[C@@H](Cc1ccccc1)C(=O)NC1(C(=O)N[C@@H](C(C)C)P(=O)(Oc2ccccc2)Oc2ccccc2)CC1`: the outcome in data set [2], in data set [5], in data set [3], in data set [6] and in data set [7] was inactive.

In the case of `CC(C)[C@H](NC(=O)[C@H](CC(C)(C)C)NC(=O)[C@H](CCCCN)NC(=O)[C@H](Cc1ccccc1)NC(=O)CCCCCNC(=O)c1ccc(C(=O)O)c(-c2c3ccc(=O)cc-3oc3cc(O)ccc23)c1)P(=O)(Oc1ccccc1)Oc1ccccc1`, the result in data set [3] was inactive.

Turning to `CC[C@H](NC(=O)[C@H](CCCCN)NC(=O)[C@H](Cc1ccccc1)NC(=O)CCCCCNC(=O)c1ccc(C(=O)O)c(-c2c3ccc(=O)cc-3oc3cc(O)ccc23)c1)C(=O)N[C@@H](C(C)C)P(=O)(Oc1ccccc1)Oc1ccccc1`, in data set [1], the half-inhibitory concentration (IC50) was 27 µM. Besides, the outcome in data set [8] and in [3] was Active. The Activity entry in [9] is “Dose-Dependent Effect”.

With `CC(C)C[C@H](NC(=O)[C@H](CCCCN)NC(=O)[C@H](Cc1ccc2ccccc2c1)NC(=O)CCCCCNC(=O)c1ccc(C(=O)O)c(-c2c3ccc(=O)cc-3oc3cc(O)ccc23)c1)C(=O)N[C@@H](C(C)C)P(=O)(Oc1ccccc1)Oc1ccccc1`, the IC50 in data set [1] was 12 µM. For the same compound, the outcome in data set [2], in data set [5] and in [7] was Active.

Turning to `CC(C)C[C@H](NC(=O)CCCCCNC(=O)c1ccc(C(=O)O)c(-c2c3ccc(=O)cc-3oc3cc(O)ccc23)c1)C(=O)N[C@@H](Cc1ccc2ccccc2c1)C(=O)N[C@@H](CC(C)C)C(=O)N[C@@H](C(C)C)P(=O)(Oc1ccccc1)Oc1ccccc1`, the IC50 in data set [1] was determined as 5.4 µM. The outcome in data set [2], in [5] and in [7] was Active. In addition, in data set [3], the outcome was inactive.

Consider `NCCc1ccc(S(=O)(=O)F)cc1`, for which the IC50 in data set [1] and in data set [10] was more than 1000 µM each time. The inhibition in data set [11] and in [12] was 20% throughout.

For the compound `O=C1C(=Cc2ccc(-c3ccccc3[N+](=O)[O-])o2)C(=O)N(c2ccccc2)C(=S)N1c1ccccc1`, the 50% inhibitory concentration (IC50) in data set [1] was 18 µM; in data set [10] it was more than 50 µM.

For `CC(C)C[C@H](NC(=O)[C@H](CCCCN)NC(=O)[C@H](Cc1ccccc1)NC(=O)CCCCCNC(=O)c1ccc(C(=O)O)c(-c2c3ccc(=O)cc-3oc3cc(O)ccc23)c1)C(=O)N[C@@H](C(C)C)P(=O)(Oc1ccccc1)Oc1ccccc1`, in data set [1], the IC50 came out at 24 µM. The outcome in [3] was Active.

`CC(C)[C@H](NC(=O)[C@H](CC1CC1)NC(=O)[C@H](CCCCN)NC(=O)[C@H](Cc1ccccc1)NC(=O)CCCCCNC(=O)c1ccc(C(=O)O)c(-c2c3ccc(=O)cc-3oc3cc(O)ccc23)c1)P(=O)(Oc1ccccc1)Oc1ccccc1`: the IC50 in data set [1] was determined as 8.3 µM; in data set [10], 6.3 µM. Further, the result in data set [2], in data set [14], in [15] and in [16] was Active. Further, the Activity entry in data set [13] is on record as “Not Active”.

Regarding `CC(C)[C@H](NC(=O)C1(NC(=O)[C@H](CCCCN)NC(=O)[C@H](Cc2ccccc2)NC(=O)CCCCCNC(=O)c2ccc(C(=O)O)c(-c3c4ccc(=O)cc-4oc4cc(O)ccc34)c2)CC1)P(=O)(Oc1ccccc1)Oc1ccccc1`, the result in data set [2], in [5], in [3], in [6] and in data set [7] was inactive.

Take `CC(C)C[C@H](NC(=O)CCCCCNC(=O)c1ccc(C(=O)O)c(-c2c3ccc(=O)cc-3oc3cc(O)ccc23)c1)C(=O)N[C@@H](Cc1ccccc1)C(=O)N[C@@H](CC(C)C)C(=O)N[C@@H](C(C)C)P(=O)(Oc1ccccc1)Oc1ccccc1`: the IC50 in data set [1] was 7.8 µM; in data set [10] it was 2 µM. Further, in [13], the Activity result is reported as “Not Active”. Further, the result in data set [14] and in data set [16] was Active.

As for `CC(C)C[C@H](NC(=O)C1(NC(=O)[C@H](CCCCN)NC(=O)[C@H](Cc2ccccc2)NC(=O)CCCCCNC(=O)c2ccc(C(=O)O)c(-c3c4ccc(=O)cc-4oc4cc(O)ccc34)c2)CC1)P(=O)(Oc1ccccc1)Oc1ccccc1`, the result in [2], in [5], in data set [3], in data set [6] and in [7] was inactive.

Turning to `CC(C)C[C@H](NC(=O)[C@H](CCCCN)NC(=O)[C@H](Cc1ccc2ccccc2c1)NC(=O)CCCCCNC(=O)c1ccc(C(=O)O)c(-c2c3ccc(=O)cc-3oc3cc(O)ccc23)c1)C(=O)N[C@@H](CC(C)C)P(=O)(Oc1ccccc1)Oc1ccccc1`, the result in [2], in [5] and in data set [7] was Active.

Consider `CC[C@H](NC(=O)[C@H](CCCCN)NC(=O)[C@H](Cc1ccccc1)NC(=O)CCCCCNC(=O)c1ccc(C(=O)O)c(-c2c3ccc(=O)cc-3oc3cc(O)ccc23)c1)C(=O)N[C@@H](CC(C)C)P(=O)(Oc1ccccc1)Oc1ccccc1`, for which, in data set [3], the result was inactive.
